These results are taken from PubChem BioAssay AID342 (DTP/NCI, 2004).

The subject of the assay is Swiss mice, Sarcoma 180 sc, mean tumor weight T/C. Description: NCI In Vivo Anticancer Drug Screen. Data for tumor model Sarcoma 180 (subcutaneous) in Swiss mice. The note with it: endpoint: mean tumor weight, higher = larger tumour. In a few lines: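 Transplantable tumors were established in mice, compound was given, then survival or tumor size was recorded. The treated value was divided by the vehicle-control value.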

The structures appear in SMILES notation. Where “and” joins values, the source holds several entries; their conditions need not be identical. Equal values may be shown once.

Turning to `CCOC(=O)C1=C(C)NC(C)=C(C(=O)OCC)C1C`, the T/C is, setting by setting: (dose: 3.1 mg/kg/injection, schedule: Q01DX007 (ip), vehicle: other) 50 % of control; (dose: 6.25 mg/kg/injection, schedule: Q01DX007 (ip), vehicle: other) 33 % of control; (dose: 31.2 mg/kg/injection, schedule: Q01DX007 (ip), vehicle: other) 42 % of control; (dose: 31.25 mg/kg/injection, schedule: Q01DX007 (ip), vehicle: other) 60 % of control; (dose: 62.5 mg/kg/injection, schedule: Q01DX007 (oral), vehicle: other) 57 % of control; (dose: 62.5 mg/kg/injection, schedule: Q01DX007 (sc), vehicle: other) 98 % of control. In addition, the T/C runs as follows: (dose: 62.5 mg/kg/injection, schedule: Q02DX004 (ip), vehicle: other) 60 % of control; (dose: 62.5 mg/kg/injection, schedule: Q03DX003 (ip), vehicle: other) 60 % of control; (dose: 100.0 mg/kg/injection, schedule: Q01DX007 (ip), vehicle: other) 69 % of control; (dose: 125.0 mg/kg/injection, schedule: Q01DX007 (oral), vehicle: other) 84 % of control; (dose: 125.0 mg/kg/injection, schedule: Q01DX007 (sc), vehicle: other) 57 % of control; (dose: 125.0 mg/kg/injection, schedule: Q02DX004 (ip), vehicle: other) 50 % of control. Besides, the T/C by setting is: (dose: 125.0 mg/kg/injection, schedule: Q03DX003 (ip), vehicle: other) 60 % of control; (dose: 175.0 mg/kg/injection, schedule: Q01DX007 (ip), vehicle: other) 29 % of control; (dose: 250.0 mg/kg/injection, schedule: Q01DX007 (oral), vehicle: other) 76 % of control; (dose: 250.0 mg/kg/injection, schedule: Q01DX007 (sc), vehicle: other) 60 % of control; (dose: 250.0 mg/kg/injection, schedule: Q02DX004 (ip), vehicle: other) 36 % of control; (dose: 250.0 mg/kg/injection, schedule: Q03DX003 (ip), vehicle: other) 54 % of control.
With `CN(C)/N=N/c1nc[nH]c1C(N)=O`, the T/C is 58 % of control (dose: 11.0 mg/kg/injection, schedule: Q01DX007 (ip), vehicle: saline); 68 % of control (dose: 12.5 mg/kg/injection, schedule: Q#A X014 (ip), vehicle: methylcellulose (MC)); 89 % of control (dose: 20.0 mg/kg/injection, schedule: Q01DX007 (ip), vehicle: carboxymethylcellulose (CMC)); 62 % of control (dose: 22.0 mg/kg/injection, schedule: Q01DX007 (ip), vehicle: saline); 43 % of control (dose: 25.0 mg/kg/injection, schedule: Q#A X014 (ip), vehicle: methylcellulose (MC)); 62 % of control (dose: 40.0 mg/kg/injection, schedule: Q01DX007 (ip), vehicle: carboxymethylcellulose (CMC)). The T/C is 23 % of control and 43 % of control (dose: 44.0 mg/kg/injection, schedule: Q01DX007 (ip), vehicle: carboxymethylcellulose (CMC)); 29 % of control (dose: 50.0 mg/kg/injection, schedule: Q#A X014 (ip), vehicle: methylcellulose (MC)); 28 % of control and 53 % of control (dose: 66.0 mg/kg/injection, schedule: Q01DX007 (ip), vehicle: carboxymethylcellulose (CMC)); 28 % of control and 29 % of control (dose: 100.0 mg/kg/injection, schedule: Q01DX007 (ip), vehicle: carboxymethylcellulose (CMC)); 19 % of control and 23 % of control (dose: 150.0 mg/kg/injection, schedule: Q01DX007 (ip), vehicle: carboxymethylcellulose (CMC)); 51 % of control and 73 % of control (dose: 160.0 mg/kg/injection, schedule: Q01DX007 (ip), vehicle: carboxymethylcellulose (CMC)). The T/C is 21 % of control (dose: 225.0 mg/kg/injection, schedule: Q01DX007 (ip), vehicle: carboxymethylcellulose (CMC)); 39 % of control and 45 % of control (dose: 320.0 mg/kg/injection, schedule: Q01DX007 (ip), vehicle: carboxymethylcellulose (CMC)); 25 % of control (dose: 640.0 mg/kg/injection, schedule: Q01DX007 (ip), vehicle: carboxymethylcellulose (CMC)).
`CN(N=O)C(=O)Nc1c[nH]c(=O)[nH]c1=O`: the T/C (dose: 25.0 mg/kg/injection, schedule: Q#A X014 (ip), vehicle: carboxymethylcellulose (CMC)) is 33 % of control.
With `CCCCCCCCCCCCCCCCCCNC(=S)N/N=C/c1ccc(Cl)cc1Cl`, for the setting “dose: 65.0 mg/kg/injection, schedule: Q#A X014 (ip), vehicle: methylcellulose (MC)”, the T/C is 35 % of control and 53 % of control.
For `O=C(N[C@H](CO)[C@H](O)c1ccc([N+](=O)[O-])cc1)C(Cl)Cl`, the T/C is 99 % of control (dose: 125.0 mg/kg/injection, schedule: Q01DX007 (ip), vehicle: carboxymethylcellulose (CMC)); 111 % of control and 112 % of control (dose: 250.0 mg/kg/injection, schedule: Q01DX007 (ip), vehicle: carboxymethylcellulose (CMC)); 45 % of control (dose: 375.0 mg/kg/injection, schedule: Q#A X014 (ip), vehicle: carboxymethylcellulose (CMC)); 76 % of control (dose: 400.0 mg/kg/injection, schedule: Q01DX007 (ip), vehicle: carboxymethylcellulose (CMC)); 105 % of control (dose: 666.66 mg/kg/injection, schedule: Q01DX007 (ip), vehicle: carboxymethylcellulose (CMC)); 97 % of control (dose: 1000.0 mg/kg/injection, schedule: Q01DX007 (ip), vehicle: carboxymethylcellulose (CMC)).
Take `Cc1nnc2ncnc(N)c2n1`: the T/C by setting is: (dose: 50.0 mg/kg/injection, schedule: Q01DX007 (ip), vehicle: carboxymethylcellulose (CMC)) 106 % of control; (dose: 75.0 mg/kg/injection, schedule: Q01DX007 (ip), vehicle: carboxymethylcellulose (CMC)) 105 % of control.
Take `COc1ccc(C[C@H]2NC[C@H](O)[C@H]2OC(C)=O)cc1`: the T/C by setting is: (dose: 3.13 mg/kg/injection, schedule: Q01DX007 (ip), vehicle: saline) 65 % of control; (dose: 6.25 mg/kg/injection, schedule: Q01DX007 (ip), vehicle: saline) 69 % of control; (dose: 12.5 mg/kg/injection, schedule: Q01DX007 (ip), vehicle: saline) 58 % of control; (dose: 25.0 mg/kg/injection, schedule: Q01DX007 (ip), vehicle: saline) 56 % of control and 66 % of control; (dose: 50.0 mg/kg/injection, schedule: Q01DX007 (ip), vehicle: saline) 108 % of control; (dose: 100.0 mg/kg/injection, schedule: Q01DX007 (ip), vehicle: saline) 104 % of control.
With `O=[N+]([O-])c1ccc(/C=N\Nc2ccc([N+](=O)[O-])cn2)cc1`, the T/C is 88 % of control (dose: 5.1 mg/kg/injection, schedule: Q#A X014 (ip), vehicle: methylcellulose (MC)); 61 % of control (dose: 10.25 mg/kg/injection, schedule: Q#A X014 (ip), vehicle: methylcellulose (MC)); 98 % of control (dose: 12.0 mg/kg/injection, schedule: Q#A X014 (ip), vehicle: methylcellulose (MC)); 64 % of control (dose: 20.55 mg/kg/injection, schedule: Q#A X014 (ip), vehicle: methylcellulose (MC)); 47 % of control (dose: 41.1 mg/kg/injection, schedule: Q#A X014 (ip), vehicle: methylcellulose (MC)).
As to `Nc1c(Br)cc2c(c1Br)Cc1cc([N+](=O)[O-])ccc1-2`, the T/C (dose: 74.0 mg/kg/injection, schedule: Q01DX007 (ip), vehicle: other) is 77 % of control; the T/C (dose: 111.0 mg/kg/injection, schedule: Q#A X014 (ip), vehicle: saline) is 27 % of control; the T/C (dose: 148.0 mg/kg/injection, schedule: Q01DX007 (ip), vehicle: carboxymethylcellulose (CMC)) was 92 % of control; the T/C (dose: 148.0 mg/kg/injection, schedule: Q01DX007 (ip), vehicle: other) is 96 % of control; the T/C (dose: 148.0 mg/kg/injection, schedule: Q01DX007 (ip), vehicle: saline) was 56 % of control; the T/C (dose: 166.5 mg/kg/injection, schedule: Q#A X014 (ip), vehicle: saline) is 21 % of control. The T/C by setting is: (dose: 222.0 mg/kg/injection, schedule: Q01DX007 (ip), vehicle: other) 42 % of control; (dose: 222.0 mg/kg/injection, schedule: Q01DX007 (ip), vehicle: saline) 64 % of control; (dose: 250.0 mg/kg/injection, schedule: Q#A X014 (ip), vehicle: saline) 21 % of control; (dose: 333.0 mg/kg/injection, schedule: Q01DX007 (ip), vehicle: other) 40 % of control; (dose: 333.0 mg/kg/injection, schedule: Q01DX007 (ip), vehicle: saline) 67 % of control; (dose: 500.0 mg/kg/injection, schedule: Q01DX007 (ip), vehicle: saline) 54 % of control.
In the case of `Clc1ccc(C[P+](c2ccccc2)(c2ccccc2)c2ccccc2)cc1Cl`, the T/C is, setting by setting: (dose: 3.6 mg/kg/injection, schedule: Q01DX007 (ip), vehicle: carboxymethylcellulose (CMC)) 66 % of control and 69 % of control; (dose: 5.3 mg/kg/injection, schedule: Q01DX007 (ip), vehicle: carboxymethylcellulose (CMC)) 63 % of control and 71 % of control; (dose: 8.0 mg/kg/injection, schedule: Q01DX007 (ip), vehicle: carboxymethylcellulose (CMC)) 46 % of control.

A word on the T/C: it is the ratio of treated to control.
